Assay results from patent EP0549433A1, “Use of N'-substituted N-phenylsulfonylureas in the treatment of hypertension in insulin-resistant patients” (ADIR ET COMPAGNIE, priority 1991, dated 1993).

Tested on: rat âgé
Experiment: Chronic treatment of the aged rat: arterial blood pressure
Type: in vivo
Settings: young rat (3 months per Tableau 1); 0,1 à 1 mg /kg par jour for 2 weeks
Procedure: Etude du traitement chronique du rat âgé
Au cours du vieillissement, une insulino-résistance apparaît, accompagnée d'une hyperinsulinémie et d'une élévation de la pression artérielle (cf tableau 1 ci-après).
A titre d'exemple, le traitement par le gliclazide à la dose de 0,1 à 1 mg /kg par jour pendant 2 semaines, diminue la pression artérielle du rat âgé de 9.10² à 11.10² Pa sans modifier celle du rat jeune.

Compound: Cc1ccc(S(=O)(=O)NC(=O)NN2CC3CCCC3C2)cc1 (stereo not shown) [gliclazide]
- pression artérielle du rat jeune: sans modifier
